ChEMBL document CHEMBL1671859, “bla(IMP-4) in different genetic contexts in Enterobacteriaceae isolates from Australia” (2008)
Converted amounts (≈) assume the structure as drawn.

Legend:
Assay type in all cases: functional
Klebsiella pneumoniae [1] = experiment: Antibacterial activity against Klebsiella pneumoniae isolate Kp4614
Morganella morganii [2] = experiment: Antibacterial activity against Morganella morganii Mm38009 transconjugant harboring IncL/M plasmid and blaIMP-4-qacG2-aacA4-catB3 array by Etest method
Morganella morganii [3] = experiment: Antibacterial activity against Morganella morganii Mm1229 transconjugant harboring IncL/M plasmid and blaIMP-4-qacG2-aacA4-catB3 array by Etest method
Escherichia coli [4] = experiment: Antibacterial activity against Escherichia coli isolate Ec9381 harboring IncL/M plasmid and blaIMP-4-qacG2-aacA4-catB3 array by Etest method
Serratia marcescens [5] = experiment: Antibacterial activity against Serratia marcescens isolate Sm220 harboring IncA/C plasmid and blaIMP-4-qacG2-aacA4-catB3 array by Etest method
Acinetobacter = experiment: Antibacterial activity against Acinetobacter isolate A74510 harboring blaIMP-4-qacG2-aacA4-catB3 array by Etest method
Acinetobacter baumannii = experiment: Antibacterial activity against Acinetobacter baumannii isolate AbN450 harboring […]-qacG2-aacA4-catB3 array by Etest method
Enterobacter cloacae [6] = experiment: Antibacterial activity against Enterobacter cloacae El3799 transconjugant harboring IncL/M plasmid and blaIMP-4-qacG2-aacA4-catB3 array by Etest method
Citrobacter koseri [7] = experiment: Antibacterial activity against Citrobacter koseri Ck211 transconjugant harboring IncA/C plasmid and blaIMP-4-qacG2-aacA4-catB3 array by Etest method
Escherichia coli [8] = experiment: Antibacterial activity against Escherichia coli Ec9381 transconjugant harboring IncL/M plasmid and blaIMP-4-qacG2-aacA4-catB3 array by Etest method
Klebsiella pneumoniae [9] = experiment: Antibacterial activity against Klebsiella pneumoniae Kp3799 transconjugant harboring IncL/M plasmid and blaIMP-4-qacG2-aacA4-catB3 array by Etest method
Klebsiella pneumoniae [10] = experiment: Antibacterial activity against Klebsiella pneumoniae isolate Kp204 harboring IncA/C plasmid and blaIMP-4-qacG2-aacA4-catB3 array by Etest method
Klebsiella pneumoniae [11] = experiment: Antibacterial activity against Klebsiella pneumoniae isolate Kp38045 harboring IncL/M plasmid and blaIMP-4-qacG2-aacA4-catB3 array by Etest method
Enterobacter cloacae [12] = experiment: Antibacterial activity against Enterobacter cloacae El1573 transconjugant harboring IncL/M plasmid and blaIMP-4-qacG2-aacA4-catB3 array by Etest method
Klebsiella pneumoniae [13] = experiment: Antibacterial activity against Klebsiella pneumoniae isolate Kp1945 harboring IncL/M plasmid and blaIMP-4-qacG2-aacA4-catB3 and dfrA12-orfF-aadA2 arrays by Etest method
Klebsiella pneumoniae [14] = experiment: Antibacterial activity against Klebsiella pneumoniae Kp149 transconjugant harboring IncA/C plasmid and blaIMP-4-qacG2-aacA4-catB3 array by Etest method
Klebsiella pneumoniae [15] = experiment: Antibacterial activity against Klebsiella pneumoniae Kp204 transconjugant harboring IncA/C plasmid and blaIMP-4-qacG2-aacA4-catB3 array by Etest method
Enterobacter cloacae [16] = experiment: Antibacterial activity against Enterobacter cloacae El3518 transconjugant harboring IncL/M plasmid and blaIMP-4-qacG2-aacA4-catB3 array by Etest method
Citrobacter amalonaticus = experiment: Antibacterial activity against Citrobacter amalonaticus isolate Ca3927 harboring IncL/M plasmid and blaIMP-4-qacG2-aacA4-catB3 array by Etest method
Serratia marcescens [17] = experiment: Antibacterial activity against Serratia marcescens isolate Sm265 harboring IncA/C plasmid and blaIMP-4-qacG2-aacA4-catB3 array by Etest method
Enterobacter cloacae [18] = experiment: Antibacterial activity against Enterobacter cloacae isolate El216 harboring IncA/C plasmid and blaIMP-4-qacG2-aacA4-catB3 array by Etest method
Morganella morganii [19] = experiment: Antibacterial activity against Morganella morganii isolate Mm1614 harboring IncL/M plasmid and blaIMP-4-qacG2-aacA4-catB3 array by Etest method
Klebsiella pneumoniae [20] = experiment: Antibacterial activity against Klebsiella pneumoniae isolate Kp1239 harboring IncL/M plasmid and blaIMP-4-qacG2-aacA4-catB3 array by Etest method
Klebsiella oxytoca [21] = experiment: Antibacterial activity against Klebsiella oxytoca Ko1156 transconjugant harboring IncL/M plasmid and blaIMP-4-qacG2-aacA4-catB3 array by Etest method
Klebsiella pneumoniae [22] = experiment: Antibacterial activity against Klebsiella pneumoniae isolate Kp7564 harboring IncL/M plasmid and blaIMP-4-qacG2-aacA4-catB3 array by Etest method in presence of clavulanic acid
Klebsiella pneumoniae [23] = experiment: Antibacterial activity against Klebsiella pneumoniae Kp38009 transconjugant harboring IncL/M plasmid and blaIMP-4-qacG2-aacA4-catB3 array by Etest method in presence of clavulanic acid
Escherichia coli [24] = experiment: Antibacterial activity against Escherichia coli Ec221 transconjugant harboring IncA/C plasmid and blaIMP-4-qacG2-aacA4-catB3 array by Etest method in presence of clavulanic acid
Klebsiella oxytoca [25] = experiment: Antibacterial activity against Klebsiella oxytoca isolate Ko1156 harboring IncL/M plasmid and blaIMP-4-qacG2-aacA4-catB3 array by Etest method in presence of clavulanic acid
Citrobacter koseri [26] = experiment: Antibacterial activity against Citrobacter koseri Ck211 transconjugant harboring IncA/C plasmid and blaIMP-4-qacG2-aacA4-catB3 array by Etest method in presence of clavulanic acid
Enterobacter cloacae [27] = experiment: Antibacterial activity against Enterobacter cloacae isolate El3518 harboring IncL/M plasmid and blaIMP-4-qacG2-aacA4-catB3 array by Etest method in presence of clavulanic acid
Klebsiella oxytoca [28] = experiment: Antibacterial activity against Klebsiella oxytoca isolate Ko238 harboring IncA/C plasmid and blaIMP-4-qacG2-aacA4-catB3 array by Etest method in presence of clavulanic acid
Klebsiella oxytoca [29] = experiment: Antibacterial activity against Klebsiella oxytoca isolate Ko0426 harboring IncL/M plasmid and blaIMP-4-qacG2-aacA4-catB3 array by Etest method in presence of clavulanic acid
Klebsiella pneumoniae [30] = experiment: Antibacterial activity against Klebsiella pneumoniae Kp149 transconjugant harboring IncA/C plasmid and blaIMP-4-qacG2-aacA4-catB3 array by Etest method in presence of clavulanic acid
Citrobacter koseri [31] = experiment: Antibacterial activity against Citrobacter koseri isolate Ck211 harboring IncA/C plasmid and blaIMP-4-qacG2-aacA4-catB3 array by Etest method in presence of clavulanic acid
Klebsiella pneumoniae [32] = experiment: Antibacterial activity against Klebsiella pneumoniae Kp204 transconjugant harboring IncA/C plasmid and blaIMP-4-qacG2-aacA4-catB3 array by Etest method in presence of clavulanic acid
Klebsiella pneumoniae [33] = experiment: Antibacterial activity against Klebsiella pneumoniae isolate Kp204 harboring IncA/C plasmid and blaIMP-4-qacG2-aacA4-catB3 array by Etest method in presence of clavulanic acid
Serratia marcescens [34] = experiment: Antibacterial activity against Serratia marcescens isolate Sm203 harboring IncA/C plasmid and blaIMP-4-qacG2-aacA4-catB3 array by Etest method in presence of clavulanic acid
Enterobacter cloacae [35] = experiment: Antibacterial activity against Enterobacter cloacae isolate El1573 harboring IncL/M plasmid and blaIMP-4-qacG2-aacA4-catB3 array by Etest method in presence of clavulanic acid
Escherichia coli [36] = experiment: Antibacterial activity against Escherichia coli Ec158 transconjugant harboring IncA/C plasmid and blaIMP-4-qacG2-aacA4-catB3 array by Etest method in presence of clavulanic acid
Enterobacter cloacae [37] = experiment: Antibacterial activity against Enterobacter cloacae El1573 transconjugant harboring IncL/M plasmid and blaIMP-4-qacG2-aacA4-catB3 array by Etest method in presence of clavulanic acid

Row | Molecule | MIC (Klebsiella pneumoniae [1]) | MIC (Morganella morganii [2]) | MIC (Morganella morganii [3]) | MIC (Escherichia coli [4]) | MIC (Serratia marcescens [5]) | MIC (Acinetobacter) | MIC (Acinetobacter baumannii) | MIC (Enterobacter cloacae [6]) | MIC (Citrobacter koseri [7]) | MIC (Escherichia coli [8]) | MIC (Klebsiella pneumoniae [9]) | MIC (Klebsiella pneumoniae [10]) | MIC (Klebsiella pneumoniae [11]) | MIC (Enterobacter cloacae [12]) | MIC (Klebsiella pneumoniae [13]) | MIC (Klebsiella pneumoniae [14]) | MIC (Klebsiella pneumoniae [15]) | MIC (Enterobacter cloacae [16]) | MIC (Citrobacter amalonaticus) | MIC (Serratia marcescens [17]) | also measured
1 | CO/N=C(\C(=O)N[C@@H]1C(=O)N2C(C(=O)O)=C(COC(C)=O)CS[C@H]12)c1csc(N)n1 [CEFOTAXIME] | > 32 µg/mL | 32 µg/mL (≈ 70.3 µM) | 32 µg/mL (≈ 70.3 µM) | > 32 µg/mL | > 32 µg/mL | > 32 µg/mL | > 32 µg/mL | 32 µg/mL (≈ 70.3 µM) | > 2 µg/mL | 32 µg/mL (≈ 70.3 µM) | 32 µg/mL (≈ 70.3 µM) | > 32 µg/mL | 32 µg/mL (≈ 70.3 µM) | 16 µg/mL (≈ 35.1 µM) | > 32 µg/mL | > 32 µg/mL | > 32 µg/mL | 32 µg/mL (≈ 70.3 µM) | > 32 µg/mL | > 32 µg/mL | MIC (Enterobacter cloacae [18]): > 32 µg/mL; MIC (Morganella morganii [19]): 32 µg/mL (≈ 70.3 µM); MIC (Klebsiella pneumoniae [20]): > 32 µg/mL; MIC (Klebsiella oxytoca [21]): 16 µg/mL (≈ 35.1 µM)
2 | NC[C@H]1O[C@H](O[C@H]2[C@H](O)[C@@H](O[C@H]3O[C@H](CO)[C@@H](O)[C@H](N)[C@H]3O)[C@H](N)C[C@@H]2N)[C@H](N)C[C@@H]1O [TOBRAMYCIN] | 8 µg/mL (≈ 17.1 µM) | 8 µg/mL (≈ 17.1 µM) | 8 µg/mL (≈ 17.1 µM) | > 8 µg/mL | > 8 µg/mL | > 8 µg/mL | > 8 µg/mL | 8 µg/mL (≈ 17.1 µM) | 8 µg/mL (≈ 17.1 µM) | 8 µg/mL (≈ 17.1 µM) | 8 µg/mL (≈ 17.1 µM) | 8 µg/mL (≈ 17.1 µM) | 8 µg/mL (≈ 17.1 µM) | 8 µg/mL (≈ 17.1 µM) | > 8 µg/mL | 8 µg/mL (≈ 17.1 µM) | 8 µg/mL (≈ 17.1 µM) | > 8 µg/mL | > 8 µg/mL | > 8 µg/mL | MIC (Enterobacter cloacae [18]): > 8 µg/mL; MIC (Morganella morganii [19]): > 8 µg/mL; MIC (Klebsiella pneumoniae [20]): 8 µg/mL (≈ 17.1 µM); MIC (Klebsiella oxytoca [21]): 8 µg/mL (≈ 17.1 µM)
3 | C[C@@H](O)[C@H]1C(=O)N2C(C(=O)O)=C(SCCNC=N)C[C@H]12 [IMIPENEM ANHYDROUS] | ≤ 1 µg/mL | 2 µg/mL (≈ 6.68 µM) | 2 µg/mL (≈ 6.68 µM) | 1.5 µg/mL (≈ 5.01 µM) | > 8 µg/mL | > 8 µg/mL | > 8 µg/mL | ≤ 1 µg/mL | ≤ 1 µg/mL | ≤ 1 µg/mL | 2 µg/mL (≈ 6.68 µM) | 8 µg/mL (≈ 26.7 µM) | 0.75 µg/mL (≈ 2.51 µM) | 2 µg/mL (≈ 6.68 µM) | 8 µg/mL (≈ 26.7 µM) | 4 µg/mL (≈ 13.4 µM) | 4 µg/mL (≈ 13.4 µM) | 2 µg/mL (≈ 6.68 µM) | 2 µg/mL (≈ 6.68 µM) | > 8 µg/mL | MIC (Enterobacter cloacae [18]): > 8 µg/mL; MIC (Morganella morganii [19]): 8 µg/mL (≈ 26.7 µM); MIC (Klebsiella pneumoniae [20]): > 32 µg/mL; MIC (Klebsiella oxytoca [21]): ≤ 1 µg/mL
4 | GENTAMICIN | > 8 µg/mL | > 8 µg/mL | > 8 µg/mL | > 8 µg/mL | > 8 µg/mL | > 8 µg/mL | > 8 µg/mL | > 8 µg/mL | > 8 µg/mL | > 8 µg/mL | > 8 µg/mL | < 2 µg/mL | > 8 µg/mL | > 8 µg/mL | > 8 µg/mL | > 8 µg/mL | < 2 µg/mL | > 8 µg/mL | > 8 µg/mL | 8 µg/mL | MIC (Enterobacter cloacae [18]): > 8 µg/mL; MIC (Morganella morganii [19]): > 8 µg/mL; MIC (Klebsiella pneumoniae [20]): > 8 µg/mL; MIC (Klebsiella oxytoca [21]): > 8 µg/mL
5 | CC1(C)S[C@@H]2[C@H](NC(=O)[C@H](N)c3ccc(O)cc3)C(=O)N2[C@H]1C(=O)O [AMOXICILLIN] | – | – | – | – | – | – | – | – | – | – | – | – | – | – | – | – | – | – | – | – | MIC (Klebsiella pneumoniae [22]): > 16 µg/mL; MIC (Klebsiella pneumoniae [23]): > 16 µg/mL; MIC (Escherichia coli [24]): > 16 µg/mL; MIC (Klebsiella oxytoca [25]): > 16 µg/mL; MIC (Citrobacter koseri [26]): > 16 µg/mL; MIC (Enterobacter cloacae [27]): > 16 µg/mL; MIC (Klebsiella oxytoca [28]): > 16 µg/mL; MIC (Klebsiella oxytoca [29]): > 16 µg/mL; MIC (Klebsiella pneumoniae [30]): > 16 µg/mL; MIC (Citrobacter koseri [31]): > 16 µg/mL; MIC (Klebsiella pneumoniae [32]): > 16 µg/mL; MIC (Klebsiella pneumoniae [33]): > 16 µg/mL; MIC (Serratia marcescens [34]): > 16 µg/mL; MIC (Enterobacter cloacae [35]): > 16 µg/mL; MIC (Escherichia coli [36]): > 16 µg/mL; MIC (Enterobacter cloacae [37]): > 16 µg/mL
